Results: US7579471B2, “Tropane derivatives useful in therapy” (Pfizer, Inc., priority 2002, dated 2009)
Read-outs that look alike come from different tables or passages of the source.

Biological target: CCR5 receptors (Homo sapiens, UniProt P51681)
Experiment: inhibition of binding of HIV envelope protein (gp120) to CCR5 receptors
Settings: procedure of Example 1 of EP 1 118 858 A2
Excerpt: Biol., 60, 147-52 (1996); by using the intracellular calcium mobilisation assays as described by the same authors; and by their ability to inhibit binding of HIV envelope protein (gp120) to CCR5 receptors according to the procedure described in Example 1 of EP 1 118 858 A2 (pp 85-88). Cell lines expressing the receptor of interest include those naturally expressing the receptor, such as PM-1, or IL-2 stimulated peripheral blood lymphocytes (PBL), or a cell engineered to express a recombinant receptor, such as CHO, 300.19, L1.2 or HEK-293.
The ability of the compounds of formula (I) to inhibit binding of HIV envelope protein (gp120) to CCR5 receptors was determined by the procedure described in Example 1 of EP 1 118 858 A2.

[1] = IC50, inhibition of binding of HIV envelope protein (gp120) to CCR5 receptors

Chain of CCR5 receptors (P51681 whole entry): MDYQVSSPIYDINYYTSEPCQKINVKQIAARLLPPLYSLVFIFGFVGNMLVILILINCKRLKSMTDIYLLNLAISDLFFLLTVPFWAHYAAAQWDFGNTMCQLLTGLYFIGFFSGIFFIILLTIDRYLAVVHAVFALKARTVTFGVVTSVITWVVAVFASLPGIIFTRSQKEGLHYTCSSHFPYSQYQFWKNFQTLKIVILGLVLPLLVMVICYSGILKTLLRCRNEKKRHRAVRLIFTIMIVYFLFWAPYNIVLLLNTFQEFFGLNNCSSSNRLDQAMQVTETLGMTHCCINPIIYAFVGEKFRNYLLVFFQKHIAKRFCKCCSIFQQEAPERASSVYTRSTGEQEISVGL

IC50 (read-out: IC50, inhibition of binding of HIV envelope protein (gp120) to CCR5 receptors) [µM]	SMILES	IC50 [1] [µM]
	CC(=O)N[C@@H](CCN1C2CCC1CC(n1c(C)nc3c1CN(C(=O)C(C)C)CC3)C2)c1ccccc1 (stereo partly drawn) [Example 9, N-{(1S)-3-[3-endo-(5-Isobutyryl-2-methyl-4,5,6,7-tetrahydro-3H-imidazo[4,5-c]pyridin-3-yl)-8-azabicyclo[3.2.1]oct-8-yl]-1-phenylpropyl}acetamide]	0.007
	COC(=O)N[C@@H](CCN1C2CCC1CC(n1c(C)nc3c1CN(C(C)=O)CC3)C2)c1cccc(F)c1 (stereo partly drawn) [Example 17, Methyl (1S)-3-[3-endo-(5-acetyl-2-methyl-4,5,6,7-tetrahydro-3H-imidazo[4,5-c]pyridin-3-yl)-8-azabicyclo[3.2.1]oct-8-yl]-1-(3-fluorophenyl)propylcarbamate]	0.015
0.007	COC(=O)N[C@@H](CCN1C2CCC1CC(n1c(C)nc3c1CCN(C(=O)OC)C3)C2)c1ccccc1 (stereo partly drawn) [Example 30, Methyl 1-endo-(8-{(3S)-3-[(methoxycarbonyl)amino]-3-phenylpropyl}-8-azabicyclo[3.2.1]oct-3-yl)-2-methyl-4,5,6,7-tetrahydro-1H-imidazo[4,5-c]pyridine-5-carboxylate]	
	COC(=O)N1CCc2c(nc(C)n2C2CC3CCC(C2)N3CC[C@H](NC(C)=O)c2cccc(F)c2)C1 (stereo partly drawn) [Example 33, Methyl 1-endo-{8-[(3S)-3-(acetylamino)-3-(3-fluorophenyl)propyl]-8-azabicyclo[3.2.1]oct-3-yl}-2-methyl-4,5,6,7-tetrahydro-1H-imidazo[4,5-c]pyridine-5-carboxylate]	0.023
	COC(=O)N1CCc2c(nc(C)n2C2CC3CCC(C2)N3CC[C@H](NC(C)=O)c2cccc(F)c2)C1 (stereo partly drawn) [Example 44, Methyl 1-endo-{8-[(3S)-3-(acetamido)-3-(3-fluorophenyl)propyl]-8-azabicyclo[3.2.1]oct-3-yl}-2-methyl-4,5,6,7-tetrahydro-1H-imidazo[4,5-c]pyridine-5-carboxylate monohydrate]	0.014
